{"source": "EPA's ToxRefDB 2", "key": {"rat [1]": {"tested_on": "rat", "conditions": "Subchronic oral toxicity in rodents, sprague dawley, Feed, dose end: 13 week, group: systemic"}, "dog [2]": {"tested_on": "dog", "conditions": "Sub-acute repeat dose toxicity, beagle, Oral, Feed, group: systemic"}, "mouse [3]": {"tested_on": "mouse", "conditions": "Subchronic oral toxicity in rodents, b6c3f1, Feed, dose end: 90 day, group: systemic"}, "rat [4]": {"tested_on": "rat", "conditions": "Chronic toxicity; sprague dawley (CD); Oral; Feed; dose end: 104 week; group: systemic; systemic / in life observation / body weight / body weight + systemic / in life observation / body weight / body weight gain"}, "rat [5]": {"tested_on": "rat", "conditions": "Combined chronic toxicity/carcinogenicity, other, Oral, Feed, dose end: 104 week, group: systemic"}, "rat [6]": {"tested_on": "rat", "conditions": "Subchronic oral toxicity in rodents, wistar, Feed, dose end: 13 week, group: systemic"}, "mouse [7]": {"tested_on": "mouse", "conditions": "Carcinogenicity, cd1, Oral, Feed, dose end: 104 week, group: systemic"}, "dog [8]": {"tested_on": "dog", "conditions": "Sub-acute repeat dose toxicity; other; Oral; Feed; dose end: 4 week; group: systemic; systemic / in life observation / body weight / body weight gain + systemic / in life observation / food consumption / food consumption"}, "rat [9]": {"tested_on": "rat", "conditions": "Chronic toxicity; wistar; Oral; Feed; dose end: 2 year; group: systemic; systemic / hematology / hemoglobin (hgb) / hemoglobin (hgb) + systemic / in life observation / body weight / body weight + systemic / organ …"}, "dog [10]": {"tested_on": "dog", "conditions": "Chronic toxicity; beagle; Oral; Feed; dose end: 2 year; group: systemic; systemic / in life observation / body weight / body weight gain + systemic / in life observation / food consumption / food consumption + …"}, "rat [11]": {"tested_on": "rat", "conditions": "Multigenerational reproductive toxicity study, sprague dawley, Oral, Feed, dose end: 2 generation"}, "mouse [12]": {"tested_on": "mouse", "conditions": "Subchronic oral toxicity in rodents, cd1, Feed, dose end: 90 day, group: systemic"}, "[13]": {"conditions": "systemic / in life observation / body weight / body weight + systemic / in life observation / food consumption / food consumption + systemic…"}, "[14]": {"conditions": "systemic / clinical chemistry / alanine aminotransferase (alt/sgpt) / alanine aminotransferase (alt/sgpt) + systemic / clinical chemistry / …"}, "[15]": {"conditions": "systemic / clinical chemistry / thyroxine (t4) / thyroxine (t4), total + systemic / pathology microscopic / liver / cellular alteration + …"}, "[16]": {"conditions": "systemic / hematology / anemia / anemia - hemolytic + systemic / hematology / hemoglobin (hgb) / hemoglobin (hgb) + systemic / hematology / …"}, "[17]": {"conditions": "systemic / clinical chemistry / cholesterol / cholesterol + systemic / clinical chemistry / gamma glutamyl transpeptides (gtp) / gamma …"}, "[18]": {"conditions": "group: offspring, systemic / in life observation / body weight / offspring (pup) weight"}, "[19]": {"conditions": "group: parental, systemic / pathology gross / lung / foci + systemic / pathology microscopic / kidney / dilatation + systemic / pathology microscopic / …"}, "[20]": {"conditions": "systemic / pathology microscopic / liver / hypertrophy"}, "[21]": {"conditions": "systemic / pathology microscopic / liver / hypertrophy + systemic / organ weight / liver / absolute + systemic / organ weight / liver / …"}}, "data": [{"smiles": "CC(C)[C@H](C(=O)O[C@H](C#N)c1cccc(Oc2ccccc2)c1)c1ccc(Cl)cc1", "note": "[Esfenvalerate]", "values": [{"measurement": "LOAEL", "setting": "rat [1]; systemic / in life observation / clinical signs / jerking movements", "value": 7.5, "unit": "mg/kg/day"}, {"measurement": "NOAEL", "setting": "rat [1]; systemic / in life observation / clinical signs / jerking movements + systemic / in life observation / body weight / body weight gain + …", "value": 2.5, "unit": "mg/kg/day"}, {"measurement": "LEL", "setting": "rat [1]; systemic / in life observation / clinical signs / jerking movements + systemic / organ weight / kidney / relative to body weight", "value": 7.5, "unit": "mg/kg/day"}, {"measurement": "NEL", "setting": "rat [1]; systemic / organ weight / kidney / relative to body weight + systemic / hematology / erythrocyte (rbc) count differential / erythrocyte (rbc…", "value": 2.5, "unit": "mg/kg/day"}, {"measurement": "LOAEL", "setting": "dog [2]; systemic / in life observation / body weight / body weight + systemic / in life observation / clinical signs / ataxia", "value": 7.5, "unit": "mg/kg/day"}, {"measurement": "LEL", "setting": "dog [2]; systemic / in life observation / body weight / body weight + systemic / in life observation / clinical signs / ataxia + systemic / in life …", "value": 7.5, "unit": "mg/kg/day"}, {"measurement": "NEL", "setting": "dog [2]; [13]", "value": 2.5, "unit": "mg/kg/day"}, {"measurement": "NOAEL", "setting": "dog [2]; [13]", "value": 2.5, "unit": "mg/kg/day"}, {"measurement": "LOAEL", "setting": "mouse [3]; [14]", "value": 106, "unit": "mg/kg/day"}, {"measurement": "NEL", "setting": "mouse [3]; [14]", "value": 10.5, "unit": "mg/kg/day"}, {"measurement": "NOAEL", "setting": "mouse [3]; [14]", "value": 30.5, "unit": "mg/kg/day"}, {"measurement": "LEL", "setting": "mouse [3]; systemic / clinical chemistry / glucose / glucose + systemic / clinical chemistry / triglycerides / triglycerides", "value": 30.5, "unit": "mg/kg/day"}]}, {"smiles": "COC(=O)c1c(Cl)c(Cl)c(C(=O)OC)c(Cl)c1Cl", "note": "[Chlorthal-dimethyl]", "values": [{"measurement": "LEL", "setting": "rat [4]", "value": 1000, "unit": "mg/kg/day"}, {"measurement": "LOAEL", "setting": "rat [4]", "value": 1000, "unit": "mg/kg/day"}, {"measurement": "NEL", "setting": "rat [4]", "value": 50, "unit": "mg/kg/day"}, {"measurement": "NOAEL", "setting": "rat [4]", "value": 50, "unit": "mg/kg/day"}, {"measurement": "LEL", "setting": "rat [5]; [15]", "value": 10, "unit": "mg/kg/day"}, {"measurement": "LOAEL", "setting": "rat [5]; [15]", "value": 10, "unit": "mg/kg/day"}, {"measurement": "NOAEL", "setting": "rat [5]; [15]", "value": 1, "unit": "mg/kg/day"}, {"measurement": "NEL", "setting": "rat [5]; systemic / pathology microscopic / eye / atrophy + systemic / pathology microscopic / liver / cellular alteration + systemic / pathology …", "value": 1, "unit": "mg/kg/day"}, {"measurement": "LOAEL", "setting": "rat [6]; [16]", "value": "> 2500", "unit": "mg/kg/day"}, {"measurement": "NEL", "setting": "rat [6]; [16]", "value": 5, "unit": "mg/kg/day"}, {"measurement": "NOAEL", "setting": "rat [6]; [16]", "value": "≥ 2500", "unit": "mg/kg/day"}, {"measurement": "LEL", "setting": "rat [6]; systemic / hematology / polychromasia / polychromasia", "value": 17, "unit": "mg/kg/day"}, {"measurement": "LOAEL", "setting": "mouse [7]; [17]", "value": 1140, "unit": "mg/kg/day"}, {"measurement": "NEL", "setting": "mouse [7]; [17]", "value": 15, "unit": "mg/kg/day"}, {"measurement": "NOAEL", "setting": "mouse [7]; [17]", "value": 510, "unit": "mg/kg/day"}, {"measurement": "LEL", "setting": "mouse [7]; systemic / clinical chemistry / gamma glutamyl transpeptides (gtp) / gamma glutamyl transpeptides (gtp) + systemic / clinical chemistry / …", "value": 150, "unit": "mg/kg/day"}, {"measurement": "LEL", "setting": "dog [8]", "value": 250, "unit": "mg/kg/day"}, {"measurement": "LOAEL", "setting": "dog [8]", "value": "> 1250", "unit": "mg/kg/day"}, {"measurement": "NEL", "setting": "dog [8]", "value": 50, "unit": "mg/kg/day"}, {"measurement": "NOAEL", "setting": "dog [8]", "value": "≥ 1250", "unit": "mg/kg/day"}, {"measurement": "LEL", "setting": "rat [9]", "value": 80, "unit": "mg/kg/day"}, {"measurement": "LOAEL", "setting": "rat [9]", "value": "> 80", "unit": "mg/kg/day"}, {"measurement": "NEL", "setting": "rat [9]", "value": 20, "unit": "mg/kg/day"}, {"measurement": "NOAEL", "setting": "rat [9]", "value": "≥ 80", "unit": "mg/kg/day"}, {"measurement": "LEL", "setting": "dog [10]", "value": 100, "unit": "mg/kg/day"}, {"measurement": "LOAEL", "setting": "dog [10]", "value": "> 100", "unit": "mg/kg/day"}, {"measurement": "NEL", "setting": "dog [10]", "value": 15, "unit": "mg/kg/day"}, {"measurement": "NOAEL", "setting": "dog [10]", "value": "≥ 100", "unit": "mg/kg/day"}, {"measurement": "LEL", "setting": "rat [11]; [18]", "value": 233, "unit": "mg/kg/day"}, {"measurement": "LOAEL", "setting": "rat [11]; [18]", "value": 233, "unit": "mg/kg/day"}, {"measurement": "NEL", "setting": "rat [11]; [18]", "value": 45, "unit": "mg/kg/day"}, {"measurement": "NOAEL", "setting": "rat [11]; [18]", "value": 45, "unit": "mg/kg/day"}, {"measurement": "LOAEL", "setting": "rat [11]; [19]", "value": 233, "unit": "mg/kg/day"}, {"measurement": "NOAEL", "setting": "rat [11]; [19]", "value": 45, "unit": "mg/kg/day"}, {"measurement": "LEL", "setting": "rat [11]; group: parental, systemic / pathology microscopic / lung / infiltration cellular + systemic / pathology microscopic / thymus / involution", "value": 45, "unit": "mg/kg/day"}, {"measurement": "LEL", "setting": "mouse [12]; [20]", "value": 1050, "unit": "mg/kg/day"}, {"measurement": "LOAEL", "setting": "mouse [12]; [20]", "value": 1240, "unit": "mg/kg/day"}, {"measurement": "NEL", "setting": "mouse [12]; [21]", "value": 517, "unit": "mg/kg/day"}, {"measurement": "NOAEL", "setting": "mouse [12]; [21]", "value": 406, "unit": "mg/kg/day"}]}]}
